Assay results reported in ChEMBL document CHEMBL1201862, “PubChem BioAssay data set” (2004).
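A five-concentration, 48-hour dose response in 96-well plates underlies each endpoint, interpolated linearly between surrounding concentrations. At the GI50, growth is halved.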 Calls of active or inactive are those of the source. No stated cut-off is given here; in the data, active = GI50 up to about 1.1 µM and inactive = higher.

Experiments:
Assay in all cases: NCI-60 cell line screen, 48 h
[1] = test system: SF-268
[2] = test system: SW-620
[3] = test system: K562
[4] = test system: A549
[5] = test system: OVCAR-3
[6] = test system: SNB-19
[7] = test system: OVCAR-8
[8] = test system: SK-MEL-5
[9] = test system: SNB-75
[10] = test system: NCI-H23
[11] = test system: SK-MEL-28
[12] = test system: KM12
[13] = test system: HT-29
[14] = test system: U-251
[15] = test system: SN12C
[16] = test system: CCRF-CEM
[17] = test system: SF-295
[18] = test system: MOLT-4
[19] = test system: NCI-H460
[20] = test system: HL-60

Measured: GI50

COC12OC3(C4OC41)C(C(=O)O[C@H]3CO[Si](C)(C)C(C)(C)C)C2C(=O)Oc1ccccc1 (stereo not given in full)
inactive: [1] > 100 µM | [2] > 100 µM | [3] > 100 µM | [4] > 100 µM | [5] > 100 µM | [6] > 100 µM | [7] > 100 µM | [8] > 100 µM | [9] > 100 µM | [10] > 100 µM | [11] > 100 µM | [12] > 100 µM | [13] > 100 µM | [14] > 100 µM | [15] > 100 µM | [16] 38.1 µM | [17] > 100 µM | [18] > 100 µM | [19] > 100 µM

Cc1nc2c(nc1Cl)nc(Oc1ccc(Cl)cc1)c1ccccc12
inactive: [1] 56.8 µM | [2] 50.4 µM | [3] > 100 µM | [4] 34.6 µM | [5] > 100 µM | [6] 82.8 µM | [7] 23.9 µM | [8] 57.5 µM | [9] 26.7 µM | [10] 45.8 µM | [11] > 100 µM | [12] > 100 µM | [13] > 100 µM | [14] 19.5 µM | [15] 43.6 µM | [16] > 100 µM | [17] 37.2 µM | [18] > 100 µM | [19] 62.4 µM

COc1ccc(C2C3CCc4ccccc4C3=NN2S(=O)(=O)c2cccc(C(=O)O)c2OC)cc1 (stereo not given)
inactive: [1] 14 µM | [2] 6.98 µM | [3] 4.06 µM | [4] 10.1 µM | [5] 5.35 µM | [6] 25.4 µM | [7] 23.6 µM | [8] 6.62 µM | [10] 52.4 µM | [20] 7.53 µM | [12] 2.48 µM | [13] 5 µM | [14] 7.21 µM | [15] 27.3 µM | [16] 10.4 µM | [17] 9.23 µM | [18] 9.02 µM | [19] 5.66 µM

N#Cc1c(-c2ccccc2)c(CN2CCCCC2)c(=O)n2c1[nH]c1ccccc12
active: [18] 0.0764 µM
inactive: [1] 45.1 µM | [2] 54.3 µM | [3] 24.7 µM | [4] 26.7 µM | [5] 20.4 µM | [6] 25.9 µM | [7] 30.3 µM | [8] 5.05 µM | [9] 81.1 µM | [10] 37.9 µM | [11] 69.5 µM | [12] 30.1 µM | [14] 27.1 µM | [15] 25.1 µM | [16] 25.9 µM | [17] 36.8 µM | [19] 25.9 µM

Cc1c(Cc2ccccc2)n(COCCCO)c(=O)[nH]c1=O
inactive: [1] > 100 µM | [2] > 100 µM | [3] > 100 µM | [4] > 100 µM | [5] > 100 µM | [6] > 100 µM | [7] > 100 µM | [8] > 100 µM | [9] > 100 µM | [10] > 100 µM | [11] > 100 µM | [12] > 100 µM | [13] > 100 µM | [14] > 100 µM | [15] > 100 µM | [16] > 100 µM | [17] > 100 µM | [18] > 100 µM | [19] > 100 µM

CC(C)CC1c2[nH]c3ccccc3c2C[C@H]2C(=O)NC(COC(C)(C)C)C(=O)N12 (stereo not given in full)
inactive: [1] 23.6 µM | [2] 31 µM | [3] 31.7 µM | [4] 31.9 µM | [5] 3.05 µM | [6] 33.9 µM | [7] 33.1 µM | [8] 21.8 µM | [10] 28.7 µM | [20] 26.4 µM | [11] 31.5 µM | [12] 24.1 µM | [13] 20.9 µM | [14] 20.4 µM | [15] 21.2 µM | [17] 17.3 µM | [18] 22.2 µM
